Where two headings read alike, the source gives them in different places.
Key:
[1] = molecular target: T1, CYP2A6 (Homo sapiens, UniProt P11509); parameters: made in house; method as in PMID 25857233; conditions: cited from earlier work
T1 sequence (P11509 1-494): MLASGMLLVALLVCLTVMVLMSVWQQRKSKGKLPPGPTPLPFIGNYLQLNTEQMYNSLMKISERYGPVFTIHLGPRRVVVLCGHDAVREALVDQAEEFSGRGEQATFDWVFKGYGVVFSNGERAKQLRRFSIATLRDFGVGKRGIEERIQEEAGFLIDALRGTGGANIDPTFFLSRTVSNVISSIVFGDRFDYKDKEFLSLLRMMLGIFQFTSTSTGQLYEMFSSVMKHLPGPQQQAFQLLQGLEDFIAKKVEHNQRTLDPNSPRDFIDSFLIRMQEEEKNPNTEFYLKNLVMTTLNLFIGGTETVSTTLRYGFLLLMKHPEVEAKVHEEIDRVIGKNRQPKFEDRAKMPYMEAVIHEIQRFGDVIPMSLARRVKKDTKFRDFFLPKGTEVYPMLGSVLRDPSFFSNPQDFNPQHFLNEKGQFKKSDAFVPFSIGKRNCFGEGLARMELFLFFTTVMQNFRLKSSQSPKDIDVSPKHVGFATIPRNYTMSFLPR

[2] = molecular target: T2, CYP2A13 (Homo sapiens, UniProt Q16696); experiment: Inhibition of CYP2A13-mediated coumarin 7-hydroxylation, enzymatic reconstitution assay; format: biochemical; conditions: for Ki: coumarin 0–40 µM
T2 construct: made in house
T2 sequence (Q16696 1-494): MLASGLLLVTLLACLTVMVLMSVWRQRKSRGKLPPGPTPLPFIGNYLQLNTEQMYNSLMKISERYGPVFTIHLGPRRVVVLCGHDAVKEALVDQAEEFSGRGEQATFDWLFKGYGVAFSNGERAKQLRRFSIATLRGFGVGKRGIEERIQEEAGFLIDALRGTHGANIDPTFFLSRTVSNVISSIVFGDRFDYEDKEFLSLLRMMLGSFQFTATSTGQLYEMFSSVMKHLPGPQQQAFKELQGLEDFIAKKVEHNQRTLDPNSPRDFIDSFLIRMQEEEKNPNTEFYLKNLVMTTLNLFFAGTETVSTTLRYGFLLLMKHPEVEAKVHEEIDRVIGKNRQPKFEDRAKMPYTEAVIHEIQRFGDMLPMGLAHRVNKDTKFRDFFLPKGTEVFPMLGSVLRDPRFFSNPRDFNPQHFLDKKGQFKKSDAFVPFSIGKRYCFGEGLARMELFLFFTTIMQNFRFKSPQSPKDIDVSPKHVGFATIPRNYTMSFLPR
Experimental: (§1) Inhibitory effect of plant extracts, fractions, subfractions and constituents was determined by inhibition assay on CYP2A6- and CYP2A13-mediated coumarin 7-hydroxylation. The recombinant human CYP2A6, CYP2A13 and rat NADPH-dependent cytochrome P450 oxidoreductase (CYPOR) proteins were expressed, purified, according to the methods previously described. […] Rate of 7-hydroxycoumarin product formation was measured on spectrofluorometer (Shimadzu, Kyoto, Japan) at λex = 355 nm, λem = 460 nm. Inhibition effects were determined by incubation with extracts, fractions or purified compounds with coumarin substrate in the reaction mixture and calculated as per cent relative inhibition compared with vehicle control reaction[20] and IC50 values were calculated using GraphPad Prism 5 (GraphPad Software Inc., La Jolla, CA).
(§2) MBI requires NADPH and time to generate reactive intermediate as inhibitor and ultimately inactivates the enzyme. MBI was evaluated by pre-incubation with each test inhibitor in the reaction at different time periods (0, 10, 20 and 30 min) in the presence of NADPH for time-dependent assay, as described. The apparent inactivation constants, KI and Kinact, were obtained from double reciprocal plots of kobs versus inhibitor concentrations by linear regression analysis on GraphPad Prism 5. Methoxsalen was used as a control mechanism-based inhibitor for time- and NADPH-dependent inhibition assays.

[3] = molecular target: T1, CYP2A6; parameters: made in house; conditions: ref Prasopthum et al., 2015, cited from earlier work
[4] = molecular target: T2, CYP2A13; experiment: Mechanism-based (time- and NADPH-dependent) inactivation of CYP2A13; format: biochemical; conditions: pre-incubation 0-30 min with NADPH; for KI (inactivation): read-out: CYP2A13 KI (inactivation constant)
Experimental: as §2

[5] = molecular target: T2, CYP2A13; experiment: Effects of trapping agents and dialysis on inactivation of CYP2A13; format: biochemical; conditions: CYP2A13 inhibition reaction mixture, probe coumarin, compound 5 µM
Experimental: as §2
(§3) To explore whether inactivation of CYP2As by thiophenes 9–11 and of CYP2A13 by hirsutinolides 5-8 could be reversed, the removal of reversible inhibitory compounds by dialysis and addition of trapping agents (GSH, semicarbazide, catalase or potassium ferricyanide) in the inhibition reaction mixture were performed. […] Similarly, mechanism-based inactivation of both CYP2A6 and CYP2A13 by thiophenes 9–11 could not be reversed (Table 3).

[6] = molecular target: T1, CYP2A6; experiment: Effects of trapping agents and dialysis on inactivation of CYP2A6; format: biochemical; parameters: made in house; conditions: CYP2A6 inhibition reaction mixture, probe coumarin, compound 5 µM
Experimental: as §2, §3

[7] = molecular target: T1, CYP2A6; experiment: Inhibition of CYP2A6-mediated coumarin 7-hydroxylation, enzymatic reconstitution assay; format: biochemical; parameters: made in house; conditions: for Ki: coumarin 0–40 µM
Experimental: as §1, §2

[8] = molecular target: T1, CYP2A6; experiment: Mechanism-based (time- and NADPH-dependent) inactivation of CYP2A6; format: biochemical; parameters: made in house; conditions: human, recombinant human CYP2A6, probe coumarin, pre-incubation 0-30 min with NADPH; for KI (inactivation): read-out: CYP2A6 KI (inactivation constant)
Experimental: as §2

[9] = molecular target: T2, CYP2A13; parameters: method as in PMID 23903410, PMID 17672516; conditions: literature values; cited from earlier work
[10] = molecular target: T1, CYP2A6; conditions: read-out: inactivation kinetic values (KI) against CYP2A6; literature values; cited from earlier work
[11] = 10-min pre-incubation in the presence of NADPH, read-out: IC50 CYP2A13 Pre-incubation
[12] = coincubation, coumarin 2 µM, read-out: IC50 CYP2A13 Coincubation
[13] = 10-min pre-incubation in the presence of NADPH, read-out: IC50 CYP2A6 Pre-incubation
[14] = coincubation, coumarin 2 µM, read-out: IC50 CYP2A6 Coincubation
[15] = read-out: Per cent remaining activity, 70 μM K3Fe(CN)6
[16] = read-out: Per cent remaining activity, 2 mM GSH
[17] = read-out: Per cent remaining activity, 5 mM semicarbazide
[18] = read-out: Per cent remaining activity, 2000 U catalase
[19] = read-out: Per cent remaining activity, Dialysis (+) NADPH
[20] = read-out: Per cent remaining activity, Dialysis (−) NADPH
[21] = read-out: Per cent remaining activity, Pre-incubation

For O=c1cc(-c2ccc(O)c(O)c2)oc2cc(O)cc(O)c12 [Luteolin 2, luteolin], the “inhibition of CYP2A6-mediated nicotine metabolism” value [1] is given as “showed inhibition”, the IC50 [2, 11] is given as 170 ± 10 nM and the IC50 [2, 12] is given as 180 ± 20 nM. The Ki [2] was 70 ± 10 nM, the IC50 [3, 13] was 1260 ± 70 nM and the IC50 [3, 14] was 1380 ± 180 nM. The Ki ([3]; coumarin 0–40 µM) was 800 ± 60 nM and the “CYP2A6 Mode of inhibition” value [3] was “Competitive^b”.
Work on CC#CC#Cc1ccc(C#CC(O)COC(C)=O)s1 (stereo not drawn) [Thiophene 9, 2-(penta-1,3-diyn-1-yl)-5–(4-acetoxy-3-hydroxybuta-1-yn-1-yl) thiophene] yielded a kinact [4] of 0.00133 s⁻¹, a KI (inactivation) [4] of 970 ± 40 nM and an activity at 5 µM [5, 15] of 24.9 ± 3.95%. The activity at 5 µM [5, 16] was 23.2 ± 3.38%, the activity at 5 µM [5, 17] was 23.2 ± 3.38% and the activity at 5 µM [5, 18] was 22.1 ± 2.39%. The activity at 5 µM [5, 19] was 20.9 ± 0.24%, the activity at 5 µM [5, 20] was 85.3 ± 4.98% and the activity at 5 µM [5, 21] was 29 ± 4.57%. For the same compound, the “CYP2A13 Mode of inhibition” value [2] was “Mixed type”, the IC50 [2, 11] was 2290 ± 340 nM and the IC50 [2, 12] was 6180 ± 280 nM. It also gave a Ki [2] of 2960 ± 100 nM, an activity at 5 µM [6, 15] of 22.7 ± 1.58% and an activity at 5 µM [6, 16] of 21.6 ± 1.97%. It also gave an activity at 5 µM [6, 17] of 26.8 ± 2.39%, an activity at 5 µM [6, 18] of 26.9 ± 3.07% and an activity at 5 µM [6, 19] of 20.1 ± 5.21%. The activity at 5 µM [6, 20] was 89.3 ± 7%, the activity at 5 µM [6, 21] was 30.1 ± 3.7% and the “CYP2A6 Mode of inhibition” value [7] was “Mixed type”. For the same compound, the IC50 [7, 13] was 2120 ± 190 nM, the IC50 [7, 14] was 6430 ± 1290 nM and the Ki [7] was 3230 ± 430 nM. It also gave a kinact [8] of 0.00167 s⁻¹ and a KI (inactivation) [8] of 880 ± 90 nM.
For CC#Cc1ccc(C#CC#CC(O)COC(C)=O)s1 (stereo not drawn) [Thiophene 10, 2-(prop-1-inyl)-5–(6-acetoxy-5-hydroxyhexa-1,3-diinyl) thiophene], the kinact [4] was 0.001 s⁻¹, the KI (inactivation) [4] was 860 ± 90 nM and the activity at 5 µM [5, 15] was 26.9 ± 1.75%. For the same compound, the activity at 5 µM [5, 16] was 27 ± 8.11%, the activity at 5 µM [5, 17] was 27 ± 8.11% and the activity at 5 µM [5, 18] was 22.2 ± 2.38%. It also gave an activity at 5 µM [5, 19] of 21.4 ± 3.95%, an activity at 5 µM [5, 20] of 93 ± 6.58% and an activity at 5 µM [5, 21] of 28.9 ± 1.25%. The “CYP2A13 Mode of inhibition” value [2] was “Mixed type”, the IC50 [2, 11] was 1150 ± 880 nM and the IC50 [2, 12] was 2940 ± 10 nM. The Ki [2] was 1120 ± 90 nM, the activity at 5 µM [6, 15] was 19.2 ± 1.83% and the activity at 5 µM [6, 16] was 28.5 ± 1.72%. For the same compound, the activity at 5 µM [6, 17] was 21.1 ± 3.31%, the activity at 5 µM [6, 18] was 24.1 ± 4.49% and the activity at 5 µM [6, 19] was 23.7 ± 2.06%. For the same compound, the activity at 5 µM [6, 20] was 87.5 ± 9.25%, the activity at 5 µM [6, 21] was 35.2 ± 3.22% and the “CYP2A6 Mode of inhibition” value [7] was “Mixed type”. For the same compound, the IC50 [7, 13] was 2970 ± 10 nM, the IC50 [7, 14] was 4440 ± 140 nM and the Ki [7] was 2070 ± 230 nM. It also gave a kinact [8] of 0.00183 s⁻¹ and a KI (inactivation) [8] of 1010 ± 70 nM.
For S=C=NCCCCCCc1ccccc1 [phenylhexyl isothiocyanate], the “KI values against CYP2A13” value [9] is listed as 1100 nM.
In the case of S=C=NCCCc1ccccc1 [phenylpropyl isothiocyanate], the “KI values against CYP2A13” value [9] is listed as 140 nM.
For C/C=C(\C)CC/C=C(\C)C(=O)OCC(C)(C)CC1=C(O)C(=O)c2ccccc2C1=O [rhinacanthin-C, reference compound], the KI (inactivation) [10] is listed as 970 nM and the “KI values against CYP2A13” value [9] is listed as 1680 nM.
For CC(C)(C)N=C=S [tert-butyl isothiocyanate], the “KI values against CYP2A13” value [9] is listed as 4300 nM.
In the case of rhinacanthin-A [reference compound], the KI (inactivation) [10] is listed as 690 nM and the “KI values against CYP2A13” value [9] is listed as 420 nM.
In the case of rhinacanthin-B [reference compound], the KI (inactivation) [10] is given as 440 nM and the “KI values against CYP2A13” value [9] is given as 160 nM.

From article PMC6009911, “Inhibition of human cytochromes P450 2A6 and 2A13 by flavonoids, acetylenic thiophenes and sesquiterpene lactones from Pluchea indica and Vernonia cinerea” (Journal of Enzyme Inhibition and Medicinal Chemistry, 2017)
